Converted amounts (≈) assume the structure as drawn. “And” between values parts separate entries of the source, which are not always exact repeats. Equal entries are not always repeated. “Also recorded” adds a separate entry of the source. Where two headings read alike, the source gives them in different places.
Experiments:
[1] = tested on: E. coli NDM-1; assay: MIC broth microdilution checkerboard; format: cell-based, Escherichia coli
Protocol: (§1) Briefly, two-fold dilutions of each meropenem/BP or meropenem/TG from 0.015 to 16 μg/mL and 1 to 64 μg/mL respectively were made in cation adjusted Mueller-Hinton Broth (CAMHB) in a 96-well microtitre plate using the checkerboard method (King et al). A 0.5 McFarland-standardized bacterial inoculum was added to make a total volume of 100 μl in each microtitre well. The initial inoculum density was determined by plating out MHA plates for MBC testing. The plates were then incubated for 18-22 h at 37° C. under aerobic conditions. The MIC was determined as the lowest concentration at which there was no visible growth. Control wells included the amount of solvent used in dissolving drug candidates.
(§2) To investigate the potential activity of BP1 and TG1 as MBLs inhibitors well characterized carbapenem-resistant bacteria expressing known class B carbapenemases were used. MICs using the broth micro-dilution method was conducted according to CLSI guidelines (Clinical and Laboratory Standards Institute. Performance Standards for Antimicrobial Susceptibility Testing: Twenty-Fourth Informational Supplement M100-S24. CLSI, Wayne, PA, USA, 2014) using cation adjusted Mueller-Hinton broth for meropenem, alone (See table 4) and in combination with the metal chelating agents BP1 and TG1 at variable concentrations (two-fold dilutions from 1 to 64 μg/mL). Escherichia coli ATCC 25922 was used as the control.

[2] = tested on: K. pneumoniae IMP-8; assay: MIC broth microdilution checkerboard; format: cell-based; settings: Klebsiella pneumoniae
Protocol: as §1, §2

[3] = tested on: E. cloacae IMP-8; assay: MIC broth microdilution checkerboard; format: cell-based; settings: Enterobacter cloacae
Protocol: as §1, §2

[4] = tested on: K. pneumonia IMP-1; assay: MIC broth microdilution checkerboard; format: cell-based; settings: Klebsiella pneumoniae
Protocol: as §1, §2

[5] = tested on: P. rettgeri NDM-1; assay: MIC broth microdilution checkerboard; format: cell-based; settings: Providencia rettgeri
Protocol: as §1, §2

[6] = tested on: E. cloacae VIM-1; assay: MIC broth microdilution checkerboard; format: cell-based; settings: Enterobacter cloacae
Protocol: as §1, §2

[7] = tested on: E. coli IMP-1; assay: MIC broth microdilution checkerboard; format: cell-based; settings: Escherichia coli
Protocol: as §1, §2

[8] = tested on: K. pneumonia VIM-1; assay: MIC broth microdilution checkerboard; format: cell-based; settings: Klebsiella pneumoniae
Protocol: as §1, §2

[9] = tested on: E. coli NDM-4; assay: MIC broth microdilution checkerboard; format: cell-based; settings: Escherichia coli
Protocol: as §1, §2

[10] = tested on: Klebsiella pneumoniae 449; assay: MIC broth microdilution checkerboard; format: cell-based; settings: read-out: MIC, Meropenem administered alone
Protocol: as §1

[11] = tested on: HepG2 cells; assay: Cell viability (MTT) assay; format: cell-based, Human; settings: for IC50: Homo sapiens, HepG2, 24 h; for HepG2 cell viability, effect in words: relative to control
Protocol: Human hepatoma (HepG2) cells were cultured in Dulbecco minimum essential medium (Lonza Biowhittaker, Switzerland) supplemented with 1% pen/strep/fungizone, 1% L-glutamine and 10% fetal bovine serum. The cells were maintained under the atmosphere of 5% CO2 at 37° C. Once 80% confluence had been reached, cells were enzymatically detached (trypsin) and utilized for the cell viability assay. The effect of MPR-SMN-05 on cell viability was determined using the 3-(4,5-Dimethyl-2-thiazolyl)-2,5-diphenyl-2H-tetrazolium bromide (MTT) assay according to previously reported studies by Mosmann (Mosmann T. Rapid colorimetric assay for cellular growth and survival: application to proliferation and cytotoxicity assays. Journal of immunological methods 1983; 65: 55-63). Approximately 15, 000 cells were seeded in a 96-well microtiter plate and allowed to adhere overnight. The cells were subsequently exposed to a range of 0 to 250 mg/L MPR-SMN-05 (experiments were done in triplicate). After incubation with MPR-SMN-05 for 24 h, cells were washed twice with 0.1 M phosphate buffer saline (PBS) and incubated with 20 μl MTT salt solution (5 mg/ml in 0.1 M PBS) and 100 μl complete culture medium (CCM) (37° C., 4 h). The MTT salt solution was then discarded and […] of DMSO was added to each well and incubated (37° C., 1 h) to dissolve the formazan crystals. The optical density was measured at 570/690 nm employing a spectrophotometer (Bio-Tek uQuant, Winooski, VT). The results were expressed as percentage cell viability vs. log concentration of MPR-SMN-05, from which the half maximal inhibitory concentration (IC50) was determined. Control treatments were represented by an equal amount of DMSO solvent in CCM without the test compound.

[12] = tested on: HepG2 cells; assay: Lactate dehydrogenase (LDH) cytotoxicity assay; format: cell-based, Human; settings: for Induction of necrosis / Extracellular lactate dehydrogenase (LDH) level: HepG2 cells; for Induction of necrosis: from LDH; for Extracellular lactate dehydrogenase (LDH) level: relative to control
Protocol: Human hepatoma (HepG2) cells were cultured in Dulbecco minimum essential medium (Lonza Biowhittaker, Switzerland) supplemented with 1% pen/strep/fungizone, 1% L-glutamine and 10% fetal bovine serum. The cells were maintained under the atmosphere of 5% CO2 at 37° C. Once 80% confluence had been reached, cells were enzymatically detached (trypsin) and utilized for the cell viability assay. The lactate dehydrogenase (LDH) cytotoxicity detection kit (Roche, Mannheim, Germany) was used to measure the cell damage and cytotoxicity in MPR-SMN-05-treated HepG2 cells. Extracellular LDH activity was quantified by incubating […] substrate solution (diaphorase/NAD+; INT/sodium lactate) in a 96 well microtiter plate at room temperature for 30 min. The assay was performed in triplicate. Optical density (OD) was measured following incubation at 500 nm using a spectrophotometric plate reader (Bio-Tek uQuant, Winooski, VT).

[13] = tested on: K. pneumoniae IMP-8; assay: Time-kill assay; format: cell-based; settings: BP1 in combination with meropenem
Protocol: (§3) Time-kill studies were performed according to previously published methods, including those described by CLSI document M26-A. E. coli NDM-1, K. pneumoniae IMP-8 and K. pneumoniae NDM were the strains selected for this assay. Briefly, freshly prepared colonies were re-suspended in 10 mL CAMHB and incubated in a shaking incubator (37° C., 180 rpm) for 1 to 2 h. Cultures were then diluted to a 0.5 McFarland standard (approximately 10^8 CFU/mL) and further diluted 1:20 in CAMHB so that the starting inoculum was approximately 5×10^6 CFU/mL. […] A growth control with no antibiotic was also included. The starting inoculum was determined from the growth control tube immediately after dilution and was recorded as the count at time zero. After addition of antibiotics, the starting inoculum was approximately 1×10^6 to 5×10^6 CFU/mL. Tubes were incubated in a shaking incubator at 37° C., 180 rpm, and viability counts were performed at 1, 2, 4, 6, 8 and 24 h by removing 100 μL of the culture, diluting as appropriate, and plating 100 μL on MHA. MHA plates were incubated at 37° C. for at least 18 h. Colonies were counted, and the results were recorded as the number of CFU/mL. A ≥3−log10 decrease in the number of CFU/mL was considered bactericidal.

[14] = tested on: E. coli NDM-1; assay: Time-kill assay; format: cell-based; settings: BP1 in combination with meropenem
Protocol: as §3

`O=C(O)CN1CCN(CC(=O)O)CCN(CC(=O)O)CC1` [TG1, 1,4,7-triazacyclononane-1,4,7-triacetic acid] was tested, and the MIC ([1]; Escherichia coli, NDM1, read-out: MIC TG1 alone) was > 64 µg/mL and > 131 µM, the MIC ([2]; IMP8, read-out: MIC TG1 alone) was > 64 µg/mL and > 131 µM and the MIC ([3]; IMP8, read-out: MIC TG1 alone) was > 64 µg/mL and > 131 µM. The MIC ([4]; IMP1, read-out: MIC TG1 alone) was > 64 µg/mL and > 131 µM, the MIC ([5]; NDM1, read-out: MIC TG1 alone) was > 64 µg/mL and > 131 µM and the MIC ([6]; VIM1, read-out: MIC TG1 alone) was > 64 µg/mL and > 131 µM. The MIC ([7]; IMP1, read-out: MIC TG1 alone) was > 64 µg/mL and > 131 µM, the MIC ([8]; VIM1, read-out: MIC TG1 alone) was > 64 µg/mL and > 131 µM and the MIC ([9]; NDM4, read-out: MIC TG1 alone) was > 64 µg/mL and > 131 µM.
`C[C@@H](O)[C@H]1C(=O)N2C(C(=O)O)=C(S[C@@H]3CN[C@H](C(=O)N(C)C)C3)[C@H](C)[C@H]12` [Meropenem] was tested, and the MIC ([1]; Escherichia coli, NDM1, E. coli NDM-1, read-out: MIC MEM alone) was > 16 µg/mL and > 42 µM, the MIC ([1]; NDM1, Escherichia coli NDM-1 (Table 6 footnote), read-out: MIC, Meropenem administered alone) was greater than 32 µg/mL and the MIC [10] was greater than 32 µg/mL. For the same molecule, the MIC ([2]; IMP8, K. pneumoniae IMP-8, read-out: MIC MEM alone) was 8 µg/mL and 21 µM, the MIC ([3]; IMP8, E. cloacae IMP-8, read-out: MIC MEM alone) was 8 µg/mL and 21 µM and the MIC ([4]; IMP1, K. pneumonia IMP-1, read-out: MIC MEM alone) was > 16 µg/mL and > 42 µM. The MIC ([5]; NDM1, P. rettgeri NDM-1, read-out: MIC MEM alone) was > 16 µg/mL and > 42 µM, the MIC ([6]; VIM1, E. cloacae VIM-1, read-out: MIC MEM alone) was 8 µg/mL and 21 µM and the MIC ([7]; IMP1, read-out: MIC MEM alone) was 16 µg/mL and 42 µM. For the same molecule, the MIC ([8]; VIM1, K. pneumonia VIM-1, read-out: MIC MEM alone) was > 16 µg/mL and > 42 µM and the MIC ([9]; NDM4, E. coli NDM-4, read-out: MIC MEM alone) was > 16 µg/mL and > 42 µM.
For `C/C=C(/C(=O)N[C@@H]1C(=O)N2C(C(=O)O)=C(CSC(=O)c3ccco3)CS[C@H]12)c1csc(NC(=O)CC(C)N2CCN(CC)CCN(CC)CC2)n1` (stereo partly drawn) [BP6], the IC50 [11] was 51.8 µg/mL (≈ 68.2 µM), the “HepG2 cell viability, effect in words” value [11] was “dose dependent increase in the cell viability; also recorded: only significantly altered at 200 μg/ml” and the Induction of necrosis [12] was “does not induce necrosis”. The “Extracellular lactate dehydrogenase (LDH) level” value [12] was “significantly reduced at all concentrations”.
`CCN1CCN(CC)CCN(C(CC(=O)NC2C(=O)N3C(C(=O)[O-])=C(C[n+]4ccccc4)CSC23)C(=O)OC)CC1` (stereo not drawn) [BP1] was tested, and the IC50 [11] was 60 µg/mL (≈ 102 µM), the “HepG2 cell viability, effect in words” value [11] was “dose-dependent decrease in cell viability was observed with a significant decrease occurring at 100 and 200 μg/ml” and the MIC ([1]; Escherichia coli, NDM1, E. coli NDM-1, read-out: MIC BP1 alone) was > 64 µg/mL and > 84 µM. The Induction of necrosis [12] was “does not induce necrosis”, the “Extracellular lactate dehydrogenase (LDH) level” value [12] was “significantly reduced at all concentrations” and the “Cytotoxicity, overall statement” value ([12]; in vitro, cell lines) was “safe at the active concentrations”. The MIC ([2]; IMP8, K. pneumoniae IMP-8, read-out: MIC BP1 alone) was > 64 µg/mL and > 84 µM, the MIC ([3]; IMP8, E. cloacae IMP-8, read-out: MIC BP1 alone) was > 64 µg/mL and > 84 µM and the MIC ([4]; IMP1, K. pneumonia IMP-1, read-out: MIC BP1 alone) was > 64 µg/mL and > 84 µM. The MIC ([5]; NDM1, P. rettgeri NDM-1, read-out: MIC BP1 alone) was > 64 µg/mL and > 84 µM, the MIC ([6]; VIM1, E. cloacae VIM-1, read-out: MIC BP1 alone) was > 64 µg/mL and > 84 µM and the MIC ([7]; IMP1, read-out: MIC BP1 alone) was > 64 µg/mL and > 84 µM. For the same molecule, the MIC ([8]; VIM1, K. pneumonia VIM-1, read-out: MIC BP1 alone) was > 64 µg/mL and > 84 µM, the MIC ([9]; NDM4, E. coli NDM-4, read-out: MIC BP1 alone) was > 64 µg/mL and > 84 µM and the Time-kill kinetics outcome [13] was “bactericidal activity”. The Time-kill kinetics outcome [14] was “bactericidal activity”.
With `CCN1CCN(CC)CCN(C(CC(=O)Nc2nc(/C(=C/CC(=O)O)C(=O)N[C@@H]3C(=O)N4C(C(=O)O)=CCS[C@H]34)cs2)C(=O)OC)CC1` (stereo partly drawn) [BP14] the IC50 [11] was 42.3 µg/mL (≈ 59.8 µM), the “HepG2 cell viability, effect in words” value [11] was “reduced cell viability at 1 μg/ml and 10-200 μg/ml; also recorded: proliferation occurred at 8 μg/ml” and the Induction of necrosis [12] was “does not induce necrosis”. The “Extracellular lactate dehydrogenase (LDH) level” value [12] was “significantly reduced at 8 μg/ml; also recorded: remained unaffected at 1 μg/ml and 10-200 μg/ml”.
With `CCC1=C(C(=O)O)N2C(=O)[C@@H](NC(=O)/C(=N/C)c3csc(NC(=O)CC(C)N4CCN(CC)CCN(CC)CC4)n3)[C@H]2SC1` (stereo partly drawn) [BP10] the IC50 [11] was 62 µg/mL (≈ 95.5 µM), the “HepG2 cell viability, effect in words” value [11] was “not significantly altered at 50-100 μg/ml; also recorded: significantly reduced at 200 μg/ml” and the Induction of necrosis [12] was “does not induce necrosis”. The “Extracellular lactate dehydrogenase (LDH) level” value [12] was “remained unaffected at 1 μg/ml; also recorded: significantly reduced at 8-200 μg/ml”.
